Results published in DBAASP.
In brackets after ≈: the same amount, converted by molar mass.

Tests used:
Assay in all cases: ≥ marks a high value that may be exact or a test limit, other limits are often not marked, values filed in µg/mL are converted to µM
Pseudomonas aeruginosa = system: Pseudomonas aeruginosa
Staphylococcus aureus = system: Staphylococcus aureus
Candida albicans = system: Candida albicans
Streptococcus agalactiae = system: Streptococcus agalactiae
[1] = system: Acinetobacter calcoaceticus
[2] = system: Bacillus subtilis KCTC 1998
[3] = system: Escherichia coli CCARM 1229
[4] = system: Staphylococcus aureus ATCC 25923
[5] = system: Staphylococcus aureus CCARM 3090
[6] = system: Pseudomonas aeruginosa 4891
[7] = system: Escherichia coli CCARM 1238
[8] = system: Pseudomonas aeruginosa ATCC 27853
[9] = system: Candida albicans KCTC 7270
[10] = system: Pseudomonas aeruginosa 4007
[11] = system: Salmonella typhimurium KCTC 1926
[12] = system: Trichosporon beigelii KCTC 7707
[13] = system: Escherichia coli ATCC 25922
[14] = system: Listeria monocytogenes KCTC 3710
[15] = system: Staphylococcus aureus CCARM 3518
Aeromonas hydrophila = system: Aeromonas hydrophila
Vibrio alginolyticus = system: Vibrio alginolyticus
Vibrio parahaemolyticus = system: Vibrio parahaemolyticus
Escherichia coli = system: Escherichia coli
Vibrio fluvialis = system: Vibrio fluvialis

Row | MIC (Staphylococcus aureus) [µM] | MIC [2] [µM] | MIC [3] [µM] | MIC [4] [µM] | MIC [5] [µM] | MIC [6] [µM] | MIC [7] [µM] | MIC [8] [µM] | MIC [9] [µM] | MIC [10] [µM] | MIC [11] [µM] | MIC [12] [µM] | MIC [13] [µM] | MIC [14] [µM] | MIC [15] [µM] | Structure (SMILES) | further results
1 | 8.2 (≈ 15.9 µg/mL) |  |  |  |  |  |  |  |  |  |  |  |  |  |  | CC[C@H](C)[C@H](NC(=O)[C@H](C)NC(=O)[C@H](Cc1cnc[nH]1)NC(=O)[C@@H]1CCCN1C(=O)[C@@H](NC(=O)[C@H](CC(C)C)NC(=O)[C@H](CO)NC(=O)[C@H](CC(C)C)NC(=O)[C@@H](N)Cc1ccccc1)[C@@H](C)CC)C(=O)N[C@@H](CC(N)=O)C(=O)N[C@@H](C)C(=O)N[C@H](C(=O)N[C@@H](CO)C(=O)N[C@@H](C)C(=O)N[C@@H](CC(C)C)C(=O)N[C@@H](C)C(=O)N[C@@H](CC(N)=O)C(=O)N[C@@H](Cc1cnc[nH]1)C(=O)NCC(N)=O)C(C)C [FLSLIPHAINAVSALANHG] | MIC (Pseudomonas aeruginosa): 32.8 µM (≈ 63.8 µg/mL); MIC (Candida albicans): 8.2 µM (≈ 15.9 µg/mL); MIC (Streptococcus agalactiae): 4.1 µM (≈ 7.97 µg/mL); MIC [1]: 4.1 µM (≈ 7.97 µg/mL)
2 |  | 8 (≈ 21.6 µg/mL) | 4 (≈ 10.8 µg/mL) | 8 (≈ 21.6 µg/mL) | 8 (≈ 21.6 µg/mL) | 8 (≈ 21.6 µg/mL) | 4 (≈ 10.8 µg/mL) | 2 (≈ 5.4 µg/mL) | ≥ 32 | 2 (≈ 5.4 µg/mL) | 4 (≈ 10.8 µg/mL) | ≥ 32 | 4 (≈ 10.8 µg/mL) | 8 (≈ 21.6 µg/mL) | 8 (≈ 21.6 µg/mL) | CC[C@H](C)[C@H](NC(=O)CNC(=O)[C@H](CCC(N)=O)NC(=O)[C@H](Cc1ccccc1)NC(=O)[C@@H](NC(=O)[C@H](CCCCN)NC(=O)[C@H](CCCCN)NC(=O)[C@H](CC(C)C)NC(=O)[C@H](C)NC(=O)[C@H](CC(N)=O)NC(=O)[C@H](CC(C)C)NC(=O)CN)C(C)C)C(=O)N[C@@H](Cc1cnc[nH]1)C(=O)N[C@@H](CCC(=O)O)C(=O)N[C@@H](C)C(=O)N[C@H](C(=O)N[C@@H](CCCCN)C(=O)N[C@@H](CCCCN)C(=O)N[C@H](C(=O)N[C@@H](CC(N)=O)C(=O)N[C@@H](CC(N)=O)C(=O)N[C@@H](Cc1cnc[nH]1)C(=O)N[C@H](C(=O)N[C@@H](CCC(N)=O)C(N)=O)C(C)C)[C@@H](C)CC)[C@@H](C)CC [GLNALKKVFQGIHEAIKKINNHVQ] | 
3 |  | ≥ 32 | ≥ 32 | 32 (≈ 95.2 µg/mL) | ≥ 32 | ≥ 64 | ≥ 32 | 16 (≈ 47.6 µg/mL) | ≥ 32 | ≥ 64 | 16 (≈ 47.6 µg/mL) | ≥ 32 | 16 (≈ 47.6 µg/mL) | ≥ 32 | ≥ 32 | CC[C@H](C)[C@H](NC(=O)CNC(=O)[C@H](CCC(N)=O)NC(=O)[C@H](Cc1c[nH]c2ccccc12)NC(=O)[C@@H](NC(=O)[C@H](CCCCN)NC(=O)[C@H](CCCCN)NC(=O)[C@H](CC(C)C)NC(=O)[C@H](C)NC(=O)[C@H](CC(N)=O)NC(=O)[C@H](CC(C)C)NC(=O)[C@@H](N)Cc1c[nH]c2ccccc12)C(C)C)C(=O)N[C@@H](Cc1cnc[nH]1)C(=O)N[C@@H](CCC(=O)O)C(=O)N[C@@H](C)C(=O)N[C@H](C(=O)N[C@@H](CCCCN)C(=O)N[C@@H](CC(C)C)C(=O)N[C@H](C(=O)N[C@@H](Cc1c[nH]c2ccccc12)C(=O)N[C@@H](CC(N)=O)C(=O)N[C@@H](Cc1c[nH]c2ccccc12)C(=O)N[C@H](C(=O)N[C@@H](CCC(N)=O)C(N)=O)C(C)C)[C@@H](C)CC)[C@@H](C)CC [WLNALKKVWQGIHEAIKLIWNWVQ] | 
4 | > 148 |  |  |  |  |  |  |  |  |  |  |  |  |  |  | CC[C@H](C)[C@H](NC(=O)[C@H](Cc1cnc[nH]1)NC(=O)[C@H](C)NC(=O)[C@@H](NC(=O)[C@H](CC(N)=O)NC(=O)[C@H](Cc1cnc[nH]1)NC(=O)[C@H](CC(C)C)NC(=O)[C@H](C)NC(=O)CNC(=O)[C@H](Cc1ccc(O)cc1)NC(=O)[C@@H](N)Cc1ccc(O)cc1)[C@@H](C)O)C(=O)N[C@H](C(=O)N[C@@H](CC(C)C)C(=O)NCC(=O)N[C@@H](CCCN=C(N)N)C(=O)O)C(C)C [YYGALHNTAHIVLGR] | MIC (Aeromonas hydrophila): ≥ 74.2 µM; MIC (Vibrio alginolyticus): 9.26 µM (≈ 15.6 µg/mL); MIC (Vibrio parahaemolyticus): ≥ 148 µM; MIC (Escherichia coli): 74.2 µM (≈ 125 µg/mL); MIC (Vibrio fluvialis): ≥ 148 µM
